Several values for one entry are separate records, joined by “and”; a condition that tells them apart may be missing. Equal entries are not always repeated.
Tests used:
IL-1α = test: Assay of IL-1α in the culture medium of UVB-irradiated reconstructed human epidermis; format: cell-based; settings: indomethacin 3 hours before irradiation, not statistically significant
Method: A human epidermis is reconstructed in vitro in culture inserts. A paper filter disc on which the substance to be tested (preventive treatment) is deposited on the “stratum corneum”. After 24 hours, it is irradiated by UVBs and then the substance to be tested (curative treatment) is again applied. an assay of IL-1α, a pro-inflammatory mediator in the culture medium, […] 3 series of substance to be tested (5, 50 and 500 μg/mL) each consisting of 3 epidermises (to be irradiated). Next, the paper filter disks are carefully withdrawn and all the series are irradiated with UVBs (0.6 J/cm^2) (Spectroline model X-15N/F, λ=312 nm) except for the series corresponding to the absolute negative control and to the solvent control. The curative treatment is then applied as described above for the preventive treatment over a period of 24 hours, except for the positive control series 2 (indomethacin). The assay of IL-1α is carried out in the sampled culture media (n=3), diluted to 1/10th and to 1/20th according to the procedure described in the assay kit.

[1] = system: reconstructed human epidermis; test: Cytotoxicity (MTT) on reconstructed human epidermis irradiated by UVBs; format: cell-based; settings: for AU (MTT): 3 epidermises and mean ± SD
Method: A human epidermis is reconstructed in vitro in culture inserts. A paper filter disc on which the substance to be tested (preventive treatment) is deposited on the “stratum corneum”. After 24 hours, it is irradiated by UVBs and then the substance to be tested (curative treatment) is again applied. a study of cytoxicity (MTT), The keratinocytes sites are sown at a density of 100×10^3 cells/cm^2 in inserts, the bottom of which consists of a polycarbonate membrane (porosity 0.4 μm-1 cm^2). […] 3 series of substance to be tested (5, 50 and 500 μg/mL) each consisting of 3 epidermises (to be irradiated). Next, the paper filter disks are carefully withdrawn and all the series are irradiated with UVBs (0.6 J/cm^2) (Spectroline model X-15N/F, λ=312 nm) except for the series corresponding to the absolute negative control and to the solvent control. The curative treatment is then applied as described above for the preventive treatment over a period of 24 hours, except for the positive control series 2 (indomethacin). The MTT test is carried out according to the conditions described in the publications: […]. and Berg K. Re-examination and further development of a precise and rapid dye method for measuring cell growth/cell kill. J. Immunol. Methods. 1989, 119, 203; and Mosmann T., Rapid colorimetric assay for cellular growth and survival: Application to proliferation and cytotoxic assays, J. Immunol. Methods. 1983, 65, 55-63. At the end of the selected incubation time, the Whatman paper disk is carefully picked up, the <<stratum corneum>> is rinsed and the porous membrane bearing the epidermal layer is detached from the insert with a bistoury. The culture medium are used for assaying IL-1α and MDA. […] For each layer, 200 μL of the obtained solution are pipeted into an 96 well plate for carrying out spectrometry with a plate reader (FL600-BIO-TEK) at λ=540 nm.

normal human fibroblasts [2] = test: Cytotoxic activity on a monolayer of human fibroblasts (MTT, 24 hours); settings: positive control (SDS), concentration not given
Method: After applying the product on the cells for 24 hours, cell viability is evaluated by measuring the activity of the mitochondrial succinate dehydrogenase of living cells. This enzyme transforms MTT (3(4,5-diméthylthiazol-2-yl)-2,5-diphenyltetrazolium bromide) into blue formazan crystals. After dissolution of these crystals, a spectrophotometric read-out is performed. The measured absorbancies are proportional to the number of living cells.
The cells used are fibroblast from human skin tissue (child foreskin) in passage 1.
Six dilutions of each sample, prepared in an culture medium with 0.005% of between 60 and 0.05% of cotton oil, are tested in an amount of 5 test wells per concentration. The reference elements are tested on 5 wells.
The absorbance is measured at 540 nm. The results are expressed as a mortality percentage compared with the negative control.

normal human fibroblasts [3] = test: Synthesis of collagen by human fibroblasts (Sircol assay); format: cell-based; design: stimulation of collagen at the cell matrix: dose or concentration left out as unconfirmed
Method: The goal of this study is to evaluate the effect of the test element on the synthesis of collagen after 24-hour contact with a monolayer of normal human fibroblasts.
The cells used are fibroblasts from a human child skin tissue (child) on passage 2.
The cells are sown with 50,000 cells/cm^2. After 24 hours of culture, 37° C., 5% CO2, they are incubated with the product under investigation and the reference element for 24 hours in a 1% FCS medium.
The collagen is assayed in the extra cellular matrix and in the culture medium by means of the assay box Sircol, Biocolor Ltd, Ireland, according to the procedure described in the box.
The assay is carried out with the red colouring agent Sirius (Direct Red 80) which has specific affinity for the trip helix structure (Gly-X-Y)n of native collagen.
The absorbance of the dye-collagen complex is read out with the spectrophotometer at 540 nm.
A standard curve is produced between 0 and 50 μg/mL of collagen of type I.
The collagen concentration is expressed in pg of collagen /ml/U MTT in the extra cellular matrix and in the culture medium.

MDA (malonaldehyde) = test: Assay of MDA (lipid peroxidation) in the culture medium of UVB-irradiated reconstructed human epidermis; format: cell-based; settings: for MDA / MDA (μM/AU MTT): vitamin E 200 μg/mL + UVB, 3 epidermises and mean ± SD
Method: A human epidermis is reconstructed in vitro in culture inserts. A paper filter disc on which the substance to be tested (preventive treatment) is deposited on the “stratum corneum”. After 24 hours, it is irradiated by UVBs and then the substance to be tested (curative treatment) is again applied. an assay of MDA (malonaldehyde) (a terminal product formed during the lipid peroxidation process induced by the formation of radical species, or species activated by oxygen). […] 3 series of substance to be tested (5, 50 and 500 μg/mL) each consisting of 3 epidermises (to be irradiated). Next, the paper filter disks are carefully withdrawn and all the series are irradiated with UVBs (0.6 J/cm^2) (Spectroline model X-15N/F, λ=312 nm) except for the series corresponding to the absolute negative control and to the solvent control. The curative treatment is then applied as described above for the preventive treatment over a period of 24 hours, except for the positive control series 2 (indomethacin). […] dilutions are carried out between 0.1 and 10 μM (0.1-1-2.5-5 and 10 μM). 500 μL of culture medium (or 500 μL of a standard range) are energetically mixed in a vortex mixer, with 1 mL of a <<TCA, TBA, HCl>> solution ([…] of TCA trichloroacetic acid, 0.375% (w/v) of TBA (2-thiobarbituric acid), 0.25 M of HCl) (heated for 15 minutes at 100° C. in order to dissolve the TBA, and then left to cool). The mixture is incubated for 15 minutes at 100° C. and the OD is measured at λ=535 nm against a blank formed with the <<TCA, TBA, HCl>> solution.

COc1ccc2c(c1)c(CC(=O)O)c(C)n2C(=O)c1ccc(Cl)cc1 [Indomethacin, indomethacin]
inhibition of synthesis and secretion of IL-1α in the culture medium (IL-1α): −20% | AU (MTT) ([1]; indomethacin 10 μg/mL, 3 hours before UVB): 0.214 AU and 0.288 AU and 0.232 AU | protective effect as regards cytotoxicity ([1]; indomethacin for 3 hours before irradiation): no protective effect

CCCCCCCCCCCCOS(=O)(=O)[O-].[Na+] [Positive control, SDS]
UA MTT (normal human fibroblasts [2]): 0.065 UA

TGF β1: positive control of the collagen synthesis test
stimulation of collagen at the cell matrix (normal human fibroblasts [3]; TGF β1): 88% | Assay of collagen, Cell matrix (normal human fibroblasts [3]; TGF β1 (100 ng/ml)): 9.74 μg/wells | Assay of collagen, Culture medium (normal human fibroblasts [3]; TGF β1 (100 ng/ml)): 11.36 μg/wells | Assay of collagen, TOTAL (normal human fibroblasts [3]; TGF β1 (100 ng/ml)): 21.09 μg/wells | Collagen ratio, Cell matrix (normal human fibroblasts [3]; TGF β1 (100 ng/ml)): 10.42 μg/wells/U MTT | Collagen ratio, Culture medium (normal human fibroblasts [3]; TGF β1 (100 ng/ml)): 12.15 μg/wells/U MTT | Collagen ratio, TOTAL (normal human fibroblasts [3]; TGF β1 (100 ng/ml)): 22.57 μg/wells/U MTT | Stimulation of collagen excreted into the culture medium (normal human fibroblasts [3]; TGF β1 (100 ng/ml)): 12% | Stimulation of collagen produced in the cell matrix (normal human fibroblasts [3]; TGF β1 (100 ng/ml)): 88% | Stimulation of the synthesis of total collagen (normal human fibroblasts [3]; TGF β1 (100 ng/ml)): 38% | stimulation of total synthesis of collagen (normal human fibroblasts [3]; TGF β1 at 10 μg/mL): 38%

vitamin E
MDA (MDA (malonaldehyde)): 0.422 µM and 0.423 µM and 0.484 µM | MDA (μM/AU MTT) (MDA (malonaldehyde)): 1.715 μM/AU MTT and 1.147 μM/AU MTT and 1.359 μM/AU MTT | MDA (MDA (malonaldehyde); mean ± SD of three epidermises): 0.443 ± 0.035 µM | MDA (μM/AU MTT) (MDA (malonaldehyde); mean ± SD of three epidermises): 1.407 ± 0.287 μM/AU MTT | increase in the MDA level (MDA (malonaldehyde); vitamin E before and after irradiation, with respect to the non-irradiated absolute negative control, P<0.05): 58% | cytotoxic effect [1]: 13% | AU (MTT) ([1]; vitamin E 200 μg/mL + UVB): 0.246 AU and 0.369 AU and 0.356 AU

From patent US20120142767A1, “PINE PCO ESTER COSMETIC COMPOSITION” (ACTION PIN, priority 2009, published 2012)
